Experimental data as given in patent US20090105283A1, “3-HYDROQUINAZOLIN-4-ONE DERIVATIVES FOR USE AS STEAROYL CoA DESATURASE INHIBITORS” (priority 2007, published 2009).

molecular target: T1, stearoyl-CoA desaturase (SCD) (Rattus norvegicus, UniProt P07308); test: SCD assay with rat liver microsomes ([3H]stearoyl CoA, adapted from Talamo and Bloch); format: biochemical; conditions: Table 1; rat liver microsomes 0.2 mg/ml assay final, [3H]stearoyl CoA substrate, 30 min preincubation, 45 min reaction, room temperature
T1 construct: The microsomes were quickly thawed and added to assay buffer so that a concentration of 0.4 mg/ml was achieved; from tissue
T1 sequence (P07308 1-358): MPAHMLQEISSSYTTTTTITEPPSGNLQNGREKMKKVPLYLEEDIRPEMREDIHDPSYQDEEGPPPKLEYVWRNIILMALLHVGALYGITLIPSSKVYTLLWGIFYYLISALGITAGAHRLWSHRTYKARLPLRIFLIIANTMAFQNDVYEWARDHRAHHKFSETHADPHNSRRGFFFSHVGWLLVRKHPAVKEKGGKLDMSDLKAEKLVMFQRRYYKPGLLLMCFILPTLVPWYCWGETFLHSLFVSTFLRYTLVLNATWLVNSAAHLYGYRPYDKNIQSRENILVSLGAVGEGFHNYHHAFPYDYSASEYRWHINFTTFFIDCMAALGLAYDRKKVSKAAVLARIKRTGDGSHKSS
In short: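 Liver microsomes came from diet-induced male Sprague Dawley rats and were used at 0.2 mg/ml final. Assay buffer was Tris pH 7.2 with NADH, ATP, CoA, MgCl2 and 0.1% BSA. Compounds were preincubated 30 min, then reacted 45 min at room temperature with [3H]stearoyl-CoA; after TCA stop and Bio-Bead cleanup, supernatant radioactivity was counted by scintillation.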

SMILES	IC50
O=C(Nc1ccc2ncn(Cc3ccc(F)cc3)c(=O)c2c1)OCc1ccccc1 [XXIV, N-{3-[(4-fluorophenyl)methyl]-4-oxo(3-hydroquinazolin-6-yl)}(phenylmethoxy)carboxamide]	300 nM
C=CCOC(=O)Nc1ccc2ncn(Cc3ccc(Cl)c(Cl)c3)c(=O)c2c1 [X, N-{3-[(3,4-dichlorophenyl)methyl]-4-oxo(3-hydroquinazolin-6-yl)}prop-2-enyloxycarboxamide]	1500 nM
O=C(Nc1ccc2ncn(Cc3ccc(Cl)c(Cl)c3)c(=O)c2c1)Oc1ccc(F)cc1 [XII, N-{3-[(3,4-dichlorophenyl)methyl]-4-oxo(3-hydroquinazolin-6-yl)}(4-fluorophenoxy)carboxamide]	13000 nM
O=C(Nc1ccc2c(=O)n(Cc3cccc(F)c3)cnc2c1)OCc1cccnc1 [LXXVI, N-{3-[(3-fluorophenyl)methyl]-4-oxo(3-hydroquinazolin-7-yl)}(3-pyridylmethoxy)carboxamide]	1340 nM
O=C(COc1cccc(Cl)c1Cl)Nc1ccc2ncn(Cc3ccc(Cl)c(Cl)c3)c(=O)c2c1 [XXX, N-{3-[(3,4-dichlorophenyl)methyl]-4-oxo(3-hydroquinazolin-6-yl)}-2-(2,3-dichlorophenoxy)acetamide]	3780 nM
O=C(COc1ccc2ccccc2c1)Nc1ccc2ncn(Cc3ccc(Cl)c(Cl)c3)c(=O)c2c1 [XXXII, N-{3-[(3,4-dichlorophenyl)methyl]-4-oxo(3-hydroquinazolin-6-yl)}-2-(2-naphthyloxy)acetamide]	2850 nM
CCCCCC(=O)Nc1ccc2ncn(Cc3ccc(Cl)c(Cl)c3)c(=O)c2c1 [III, N-{3-[(3,4-dichlorophenyl)methyl]-4-oxo-3-hydroquinazolin-6-yl}hexanamide]	5310 nM

Continued, values first:

IC50	SMILES
280 nM	O=C(Nc1ccc2c(=O)n(Cc3cccc(Cl)c3)cnc2c1)OCc1cccnc1 [LIX, N-{3-[(3-chlorophenyl)methyl]-4-oxo(3-hydroquinazolin-7-yl)}(3-pyridylmethoxy)carboxamide]
1700 nM	CC(=O)OCC(=O)Nc1ccc2ncn(Cc3cccc(C(F)(F)F)c3)c(=O)c2c1 [XCIV, [N-(4-oxo-3-{[3-(trifluoromethyl)phenyl]methyl}-3-hydroquinazolin-6-yl)carbamoyl]methyl acetate]
1980 nM	O=C(COc1ccccc1Cl)Nc1ccc2ncn(Cc3ccc(Cl)c(Cl)c3)c(=O)c2c1 [XXIX, N-{3-[(3,4-dichlorophenyl)methyl]-4-oxo(3-hydroquinazolin-6-yl)}-2-(2-chlorophenoxy)acetamide]
6100 nM	O=C(COc1ccccc1)Nc1ccc2ncn(Cc3ccc(Cl)c(F)c3)c(=O)c2c1 [XXXIX, N-{3-[(4-chloro-3-fluorophenyl)methyl]-4-oxo(3-hydroquinazolin-6-yl)}-2-phenoxyacetamide]
11700 nM	CC(=O)NCC(=O)Nc1ccc2ncn(Cc3ccc(Cl)c(Cl)c3)c(=O)c2c1 [XIX, 2-(acetylamino)-N-{3-[(3,4-dichlorophenyl)methyl]-4-oxo(3-hydroquinazolin-6-yl)}acetamide]
3120 nM	O=C(CO)Nc1ccc2c(=O)n(Cc3ccc(Cl)cc3)cnc2c1 [LXXXI, N-{3-[(4-chlorophenyl)methyl]-4-oxo(3-hydroquinazolin-7-yl)}-2-hydroxyacetamide]
27100 nM	CC(=O)OCC(=O)Nc1ccc2c(=O)n(Cc3cccc(Cl)c3)cnc2c1 [LXV, (N-{3-[(3-chlorophenyl)methyl]-4-oxo-3-hydroquinazolin-7-yl}carbamoyl)methyl acetate]
15000 nM	O=C(COc1ccccc1)Nc1ccc2ncn(Cc3ccc(Br)cc3)c(=O)c2c1 [XXXVIII, N-{3-[(4-bromophenyl)methyl]-4-oxo(3-hydroquinazolin-6-yl)}-2-phenoxyacetamide]
5700 nM	Cc1ccc(OCC(=O)Nc2ccc3ncn(Cc4ccc(Cl)c(Cl)c4)c(=O)c3c2)cc1 [XXII, N-{3-[(3,4-dichlorophenyl)methyl]-4-oxo(3-hydroquinazolin-6-yl)}-2-(4-methylphenoxy)acetamide]
3770 nM	CCOC(=O)COC(=O)Nc1ccc2c(=O)n(Cc3ccc(Cl)c(Cl)c3)cnc2c1 [XCI, ethyl 2-(N-{3-[(3,4-dichlorophenyl)methyl]-4-oxo-3-hydroquinazolin-7-yl}carbamoyloxy)acetate]
16400 nM	CC(=O)OCC(=O)Nc1ccc2c(=O)n(Cc3ccc(Cl)cc3)cnc2c1 [LXVI, (N-{3-[(4-chlorophenyl)methyl]-4-oxo-3-hydroquinazolin-7-yl}carbamoyl)methyl acetate]
310 nM	CN(C)CC(=O)OCC(=O)Nc1ccc2c(=O)n(Cc3ccc(Cl)c(Cl)c3)cnc2c1 [XC, (N-{3-[(3,4-dichlorophenyl)methyl]-4-oxo-3-hydroquinazolin-7-yl}carbamoyl)methyl 2-(dimethylamino)acetate]

same assay, conditions: Table 2 (Example 21, procedures of Example 20); rat liver microsomes, [3H]stearoyl CoA substrate

SMILES	IC50
CC(c1ccc(Cl)c(Cl)c1)n1cnc2cc(NC(=O)OCc3ccccc3)ccc2c1=O (stereo not shown) [compound 9, benzyl 3-(1-(3,4-dichlorophenyl)ethyl)-4-oxo-3,4-dihydroquinazolin-7-ylcarbamate]	290 nM
CC(c1ccc(Cl)c(Cl)c1)n1cnc2cc(NC(=O)CO)ccc2c1=O (stereo not shown) [compound 11, N-(3-(1-(3,4-dichlorophenyl)ethyl)-4-oxo-3,4-dihydroquinazolin-7-yl)-2-hydroxyacetamide]	170 nM
O=C(CO)Nc1ccc2ncn(CCCOc3ccccc3C(F)(F)F)c(=O)c2c1 [compound 45, 2-hydroxy-N-(4-oxo-3-(3-(2-(trifluoromethyl)phenoxy)propyl)-3,4-dihydroquinazolin-6-yl)acetamide]	120 nM
O=C(NCc1ccccc1)c1ccc2c(=O)n(Cc3ccc(Cl)c(Cl)c3)cnc2c1 [compound 85, N-benzyl-3-(3,4-dichlorobenzyl)-4-oxo-3,4-dihydroquinazoline-7-carboxamide]	950 nM
Cc1ccccc1OCCCn1cnc2ccc(NC(=O)CO)cc2c1=O [compound 53, 2-hydroxy-N-(4-oxo-3-(3-(o-tolyloxy)propyl)-3,4-dihydroquinazolin-6-yl)acetamide]	100 nM
Cc1nc2cc(NC(=O)OCc3ccccc3)ccc2c(=O)n1Cc1ccc(Cl)c(Cl)c1 [compound 8, benzyl 3-(3,4-dichlorobenzyl)-2-methyl-4-oxo-3,4-dihydroquinazolin-7-ylcarbamate]	1200 nM
O=C(CO)Nc1ccc2ncn(CCc3ccc(Cl)cc3Cl)c(=O)c2c1 [compound 39, N-(3-(2,4-dichlorophenethyl)-4-oxo-3,4-dihydroquinazolin-6-yl)-2-hydroxyacetamide]	4900 nM
Cc1ccc(Cn2cnc3ccc(NC(=O)OCc4ccccc4)cc3c2=O)cc1C [compound 20, benzyl 3-(3,4-dimethylbenzyl)-4-oxo-3,4-dihydroquinazolin-6-ylcarbamate]	230 nM
O=C(CO)Nc1ccc2ncn(CCCCOc3cc(Cl)ccc3Cl)c(=O)c2c1 [compound 55, N-(3-(4-(2,5-dichlorophenoxy)butyl)-4-oxo-3,4-dihydroquinazolin-6-yl)-2-hydroxyacetamide]	240 nM
C[C@H](c1ccc(Cl)c(C(F)(F)F)c1)n1cnc2ccc(NC(=O)CO)cc2c1=O [compound 34, (R)—N-(3-(1-(4-chloro-3-(trifluoromethyl)phenyl)ethyl)-4-oxo-3,4-dihydroquinazolin-6-yl)-2-hydroxyacetamide]	480 nM
O=C(CO)Nc1ccc2ncn(Cc3ccc4ccccc4c3)c(=O)c2c1 [compound 31, 2-hydroxy-N-(3-(naphthalen-2-ylmethyl)-4-oxo-3,4-dihydroquinazolin-6-yl)acetamide]	340 nM
CC(c1ccc(Cl)c(Cl)c1)n1cnc2ccc(NC(=O)CO)cc2c1=O (stereo not shown) [compound 23, N-(3-(1-(3,4-dichlorophenyl)ethyl)-4-oxo-3,4-dihydroquinazolin-6-yl)-2-hydroxyacetamide]	210 nM
O=C(CO)Nc1ccc2ncn(CCc3cccc(Cl)c3)c(=O)c2c1 [compound 38, N-(3-(3-chlorophenethyl)-4-oxo-3,4-dihydroquinazolin-6-yl)-2-hydroxyacetamide]	5800 nM
O=C(CO)Nc1ccc2ncn(CCCOc3ccccc3Cl)c(=O)c2c1 [compound 60, N-(3-(3-(2-chlorophenoxy)propyl)-4-oxo-3,4-dihydroquinazolin-6-yl)-2-hydroxyacetamide]	450 nM
O=C(CO)Nc1ccc2ncn(CCCCCOc3cc(Cl)ccc3Cl)c(=O)c2c1 [compound 64, N-(3-(5-(2,5-dichlorophenoxy)pentyl)-4-oxo-3,4-dihydroquinazolin-6-yl)-2-hydroxyacetamide]	1300 nM

Continued, values first:

IC50	SMILES
12000 nM	O=C(CCO)Nc1ccc2ncn(Cc3ccc(Cl)c(Cl)c3)c(=O)c2c1 [compound 95, N-(3-(3,4-dichlorobenzyl)-4-oxo-3,4-dihydroquinazolin-6-yl)-3-hydroxypropanamide]
1000 nM	O=C(NCCO)c1ccc2c(=O)n(Cc3ccc(Cl)cc3)cnc2c1 [compound 92, 3-(4-chlorobenzyl)-N-(2-hydroxyethyl)-4-oxo-3,4-dihydroquinazoline-7-carboxamide]
7500 nM	CNC(=O)c1ccc2c(=O)n(Cc3ccc(Cl)cc3)cnc2c1 [compound 89, 3-(4-chlorobenzyl)-N-methyl-4-oxo-3,4-dihydroquinazoline-7-carboxamide]
